Results on 10 molecules are retold here after ChEMBL document CHEMBL1201862, “PubChem BioAssay data set” (2004).

Molecules are shown by their SMILES. The source made the active and inactive calls.

One may read the CC50 as the concentration that lowers cell viability or growth by half. In general, AC50 refers to the concentration at which the activity in the assay is half-maximal. A word on the EC50: it is the midpoint of the concentration-response curve. The GI50 is the concentration that inhibits growth by half.

In assay [1] the target is T1, Caspase-3 (Homo sapiens, UniProt P42574).
T1 sequence (P42574 whole entry): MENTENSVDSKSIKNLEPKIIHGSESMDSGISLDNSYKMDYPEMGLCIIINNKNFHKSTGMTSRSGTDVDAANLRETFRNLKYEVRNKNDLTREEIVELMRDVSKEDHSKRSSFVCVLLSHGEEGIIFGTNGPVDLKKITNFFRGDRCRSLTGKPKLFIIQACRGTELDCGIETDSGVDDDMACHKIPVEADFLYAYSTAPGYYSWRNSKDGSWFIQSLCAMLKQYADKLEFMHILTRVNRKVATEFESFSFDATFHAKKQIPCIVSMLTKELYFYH
Briefly: SAR Analysis of small molecule inhibitors of Sentrin-specific proteases (SENPs) using a Caspase-3 Selectivity assay. [Related pubchem assays (depositor defined):AID2540, AID2599, AID434973, AID489001]. The assay is classed as functional.

Assay [2] has as its target T2, Sentrin-specific protease 7 (Homo sapiens, UniProt Q9BQF6).
T2 sequence (Q9BQF6 whole entry): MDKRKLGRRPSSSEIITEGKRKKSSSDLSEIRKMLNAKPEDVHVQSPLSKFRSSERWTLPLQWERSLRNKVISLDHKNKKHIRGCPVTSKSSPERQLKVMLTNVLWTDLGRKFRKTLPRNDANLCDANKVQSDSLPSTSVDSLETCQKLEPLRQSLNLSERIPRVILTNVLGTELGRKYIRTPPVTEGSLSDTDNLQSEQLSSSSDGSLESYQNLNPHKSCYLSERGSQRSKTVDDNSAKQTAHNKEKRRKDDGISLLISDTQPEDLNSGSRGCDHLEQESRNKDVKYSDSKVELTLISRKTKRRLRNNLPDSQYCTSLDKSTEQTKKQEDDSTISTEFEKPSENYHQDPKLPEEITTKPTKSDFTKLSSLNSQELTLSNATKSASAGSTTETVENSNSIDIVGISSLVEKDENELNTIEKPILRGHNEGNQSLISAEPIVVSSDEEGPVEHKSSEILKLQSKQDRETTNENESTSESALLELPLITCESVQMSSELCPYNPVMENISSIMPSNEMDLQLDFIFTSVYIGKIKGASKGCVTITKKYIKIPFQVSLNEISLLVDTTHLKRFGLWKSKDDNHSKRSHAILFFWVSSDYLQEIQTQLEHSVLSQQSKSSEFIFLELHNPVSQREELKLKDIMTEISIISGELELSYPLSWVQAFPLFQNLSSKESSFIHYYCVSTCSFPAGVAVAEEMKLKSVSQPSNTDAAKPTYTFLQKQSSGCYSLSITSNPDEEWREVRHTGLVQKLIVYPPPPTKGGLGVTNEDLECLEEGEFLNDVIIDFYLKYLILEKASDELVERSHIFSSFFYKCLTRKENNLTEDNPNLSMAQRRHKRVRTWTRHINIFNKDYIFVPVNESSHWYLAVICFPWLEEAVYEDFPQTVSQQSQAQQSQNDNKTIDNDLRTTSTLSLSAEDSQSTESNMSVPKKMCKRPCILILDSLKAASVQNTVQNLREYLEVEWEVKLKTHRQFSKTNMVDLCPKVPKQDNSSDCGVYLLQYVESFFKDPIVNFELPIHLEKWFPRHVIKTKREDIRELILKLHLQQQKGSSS
It is filed as functional.

Assay [3] has as its target T1, Caspase-3. It is filed as functional.
Assay [4] concerns the target T3, Sentrin-specific protease 8 (Homo sapiens, UniProt Q96LD8).
T3 sequence (Q96LD8 whole entry): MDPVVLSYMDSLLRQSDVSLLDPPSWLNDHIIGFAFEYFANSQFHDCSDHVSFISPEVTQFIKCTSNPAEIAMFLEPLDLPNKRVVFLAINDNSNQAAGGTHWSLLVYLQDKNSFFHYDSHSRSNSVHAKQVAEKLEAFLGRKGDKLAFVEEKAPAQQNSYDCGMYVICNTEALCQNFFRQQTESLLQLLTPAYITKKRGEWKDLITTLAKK
Briefly: SENP8 protease inhibitors, SAR follow-up, biochemical, luminescence (AID 504501). The assay is classed as functional.

Assay [5] concerns the target T4, Sentrin-specific protease 6 (Homo sapiens, UniProt Q9GZR1).
T4 sequence (Q9GZR1 whole entry): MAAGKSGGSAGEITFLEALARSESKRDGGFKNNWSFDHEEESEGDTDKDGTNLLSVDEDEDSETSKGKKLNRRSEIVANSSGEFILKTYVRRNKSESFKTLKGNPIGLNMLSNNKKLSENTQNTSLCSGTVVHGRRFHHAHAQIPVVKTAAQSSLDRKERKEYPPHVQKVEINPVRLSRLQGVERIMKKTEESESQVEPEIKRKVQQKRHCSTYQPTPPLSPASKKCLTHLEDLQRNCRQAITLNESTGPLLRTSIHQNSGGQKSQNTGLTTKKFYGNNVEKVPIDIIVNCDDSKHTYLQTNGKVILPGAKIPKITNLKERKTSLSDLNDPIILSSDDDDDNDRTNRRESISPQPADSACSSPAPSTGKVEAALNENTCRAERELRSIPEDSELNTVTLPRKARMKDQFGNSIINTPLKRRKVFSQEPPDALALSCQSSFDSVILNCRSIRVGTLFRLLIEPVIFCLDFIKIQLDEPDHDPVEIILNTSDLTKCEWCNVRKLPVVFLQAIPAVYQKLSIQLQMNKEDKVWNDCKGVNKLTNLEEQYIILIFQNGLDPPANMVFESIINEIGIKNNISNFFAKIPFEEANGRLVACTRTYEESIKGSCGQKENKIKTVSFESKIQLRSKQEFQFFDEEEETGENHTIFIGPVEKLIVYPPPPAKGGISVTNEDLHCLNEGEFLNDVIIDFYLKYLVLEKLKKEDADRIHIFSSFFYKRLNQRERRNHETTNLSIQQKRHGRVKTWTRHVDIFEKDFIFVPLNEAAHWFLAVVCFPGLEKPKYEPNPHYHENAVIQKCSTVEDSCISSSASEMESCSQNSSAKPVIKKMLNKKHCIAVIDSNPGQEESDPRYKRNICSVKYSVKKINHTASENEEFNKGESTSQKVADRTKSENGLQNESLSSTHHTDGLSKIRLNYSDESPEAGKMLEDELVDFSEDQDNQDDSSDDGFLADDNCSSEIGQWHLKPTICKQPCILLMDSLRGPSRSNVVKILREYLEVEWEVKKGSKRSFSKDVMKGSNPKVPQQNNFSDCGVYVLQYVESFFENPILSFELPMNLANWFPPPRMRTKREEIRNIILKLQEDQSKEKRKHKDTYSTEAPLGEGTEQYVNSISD
In words: SAR Analysis of small molecule inhibitors of Sentrin-specific protease 6 (SENP6) using a Luminescent assay. [Related pubchem assays (depositor defined):AID2582, AID2599]. It is filed as functional.

Assay [6] has as its target T4, Sentrin-specific protease 6. The assay is classed as functional.
For assay [7], the target named is T3, Sentrin-specific protease 8. The assay is classed as functional.
The nature of assay [8]: HEp-2 cell cytotoxicity, dose response, cytotoxicity control for RSV inhibitor project, HTS (AID 2410). It is filed as functional. Particulars: human respiratory syncytial virus.
Assay [9] addresses T2, Sentrin-specific protease 7. In words: SENP7 protease inhibitors, SAR follow-up, biochemical, luminescence (AID 504497). The assay is classed as functional.
Assay [10] is described as follows: inhibitors of HIV Env-driven cell fusion, dose response, cherry-pick (AID 652057). It is filed as functional, cell-based.
Assay [11] can be described thus: ZM109 Env clade C HIV-1 fusion inhibitors, dose response, HeLa effector, CEM target cells, luciferase, cherry-pick (AID 652058). The assay is classed as functional, cell-based.
Assay [12] is described as follows: CEM21 lymphoblast cell cytotoxicity, dose response, cytotoxicity control for viral fusion inhibitor project, CellTiter-Glo luminescence, cherry-picked (AID 652042).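 Also: potency for signal decrease meaning cytotoxicity.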 The assay is classed as functional, cell-based.
Assay [13] in a line: off-target signal loss in HeLa-CEM21 co-culture – HeLa F-luc CTL cells, cherry-picked, counter-screen for HIV-1 Env fusion inhibitor project, dose response (AID 652040).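 Also: potency for signal decrease marking cytotoxic or nonspecific inhibition.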 It is filed as functional, cell-based.
Another assay concerns the target Melanocortin receptor 4 (Homo sapiens, UniProt P32245). It is filed as functional, cell-based.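 Also: Cell-based assay with luminescence read-out, confirmatory dose-response testing for agonist activity of biased ligands at MC4R; human U2OS cells with tagged receptor and beta-arrestin; potency of agonists that increase receptor coupling to beta-arrestin.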
Assay [14] is described as follows: inhibitors of clade B AD8 Env fusion, dose response, cell-based, cherry-pick (AID 652062).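 Also: luciferase signal from cell-cell fusion driven by HIV-1 clade B AD8 Env; potency is for inhibitors of fusion seen as a drop in luminescence.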 The assay is classed as functional.
Assay [15] has as its target T5, Low molecular weight phosphotyrosine protein phosphatase (Homo sapiens, UniProt P24666).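 Also: Dose-response confirmation assay measuring inhibition of LMPTP enzyme activity by fluorescence intensity read-out.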
T5 sequence (P24666 whole entry): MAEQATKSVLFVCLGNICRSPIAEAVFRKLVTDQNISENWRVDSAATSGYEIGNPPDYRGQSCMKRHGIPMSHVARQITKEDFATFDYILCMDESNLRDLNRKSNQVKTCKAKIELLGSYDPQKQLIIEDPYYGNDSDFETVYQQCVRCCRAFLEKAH
The assay is classed as functional. Particulars: read-out: IC50_Mean.

Assay [16] in a line: cytotoxicity toward NIH3T3 fibroblasts, dose response, counter-screen, cell-based, ATP luminescence, mouse fibroblasts (AID 2010).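 Also: cells exposed to compound for about 90 hours before reading.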 It is filed as functional. A general note: Counterscreens check selectivity or assay interference.
The target of assay [17] is T6, DNA repair protein RAD52 homolog (Homo sapiens, UniProt P43351).
T6 sequence (P43351 whole entry): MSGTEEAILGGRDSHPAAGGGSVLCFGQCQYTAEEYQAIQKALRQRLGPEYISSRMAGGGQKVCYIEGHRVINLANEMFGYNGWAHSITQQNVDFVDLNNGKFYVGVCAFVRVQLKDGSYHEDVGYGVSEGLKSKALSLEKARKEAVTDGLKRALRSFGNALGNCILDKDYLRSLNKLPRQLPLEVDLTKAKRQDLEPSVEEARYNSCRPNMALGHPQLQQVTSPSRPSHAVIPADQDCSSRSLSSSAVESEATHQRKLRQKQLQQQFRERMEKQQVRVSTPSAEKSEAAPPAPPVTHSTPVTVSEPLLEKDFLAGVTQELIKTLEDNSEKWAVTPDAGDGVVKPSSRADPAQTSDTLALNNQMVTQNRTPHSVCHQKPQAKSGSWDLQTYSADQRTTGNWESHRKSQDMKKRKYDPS
It is filed as functional, biochemical.

A short description of assay [18]: inhibitors of intracellular T. cruzi replication, confirmation, NIH3T3 host cells, beta-gal luminescence (AID 2044).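 Also: intracellular parasites grown in NIH/3T3 mouse fibroblasts as host cells; luminescent beta-galactosidase reporter signal from transgenic T. cruzi replicating inside host cells; inhibitors lower the luminescence signal.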 It is filed as functional, cell-based.
In assay [19] the target is T7, Ubiquitin-conjugating enzyme E2 N (Homo sapiens, UniProt P61088).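 Also: Dose-response confirmation in a TR-FRET assay detecting UBC13-driven polyubiquitin chain formation, inhibition measured.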
T7 sequence (P61088 whole entry): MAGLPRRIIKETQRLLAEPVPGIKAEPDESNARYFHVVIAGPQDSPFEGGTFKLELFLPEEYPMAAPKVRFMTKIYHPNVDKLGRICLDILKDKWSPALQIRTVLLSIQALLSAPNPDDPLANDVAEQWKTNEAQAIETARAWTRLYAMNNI
It is filed as functional.

The next assay concerns H9c2. Briefly: cells. Particulars: Rattus norvegicus, H9c2, Myocardium. It is filed as functional, cell-based.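 Also: confirmatory concentration-response retest of ultra-high-throughput screening hits for modulation of myocardial damage; cell death induced by hydrogen peroxide oxidative stress; compound pretreatment for 60 min then peroxide exposure for 2 h; potency is for protecting the cells against peroxide damage rather than for killing them.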
The subject of the next assay is SN12K1. In words: cells. It is filed as functional. Particulars: Homo sapiens.
A further assay relates to P388/ADR. In words: cells. Particulars: Mus musculus. The assay is classed as functional.
A further assay has as its system P388. In words: cells. Particulars: Mus musculus. The assay is classed as functional.

Sequence of Melanocortin receptor 4 (P32245 whole entry, the tested form may be a part): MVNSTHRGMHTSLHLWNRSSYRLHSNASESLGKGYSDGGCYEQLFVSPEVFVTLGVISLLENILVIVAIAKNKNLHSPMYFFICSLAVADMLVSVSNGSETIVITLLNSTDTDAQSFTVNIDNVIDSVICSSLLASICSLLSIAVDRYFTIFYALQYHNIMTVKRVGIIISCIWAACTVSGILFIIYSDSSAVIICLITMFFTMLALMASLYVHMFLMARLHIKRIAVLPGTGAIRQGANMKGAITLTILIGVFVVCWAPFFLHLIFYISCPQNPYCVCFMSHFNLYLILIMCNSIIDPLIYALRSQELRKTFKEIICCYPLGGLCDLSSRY

In the case of `CCc1ccc2oc(-c3ccc(NC(C)=O)cc3)nc2c1`, the IC50 on Caspase-3 [1] was 7.01 µM (active); in assay [2] it was 2.89 µM (active); on Caspase-3 [3], 12.4 µM (active); in assay [4], 5.46 µM (active); in assay [5], 5.12 µM (active); in [6], 8.05 µM (active). Moreover, the IC50 is 13.2 µM (active) in [7] and 2.09 µM (active) in assay [9]. In addition, the CC50 in assay [8] was 22.2 µM (active).
Consider `CCOc1cc(CNCCc2c[nH]c3ccccc23)cc(Cl)c1OCC`, for which the concentration at half-maximal activity (AC50) was 4.29 µM (active) in assay [10]; 2.31 µM (active) in assay [11]; 26.6 µM (active) in [12]; 6.11 µM (active) in assay [13]; 27.2 µM (active) in [14]. Moreover, on Melanocortin receptor 4, the EC50 is > 89.2 µM (inactive). Also, the CC50 in [8] is 14.9 µM (active).
With `O=c1c2ccccc2nc2sc(Nc3cccc(Cl)c3)nn12`, the IC50 in [15] is 14.5 µM (active).
With `N=C(N)Nc1nc(-c2ccccc2)c2cc(Cl)ccc2n1`, the EC50 at Melanocortin receptor 4 was > 89.2 µM (inactive); in assay [16], > 60 µM (not active); in assay [18], 0.382 µM (active). Further, the AC50 in assay [17] was 6.61 µM (active). Further, the IC50 in assay [19] is > 20 µM (inactive).
Turning to `COc1cccc(-c2cnc3c(NC=O)cc(-c4cc(OC)c(OC)c(OC)c4)cn23)c1`, the EC50 at Melanocortin receptor 4 is > 89.2 µM (inactive). Also, the IC50 with H9c2 was > 79 µM (inactive).
Take `CC(=O)Oc1ccc(C2COc3cc(OC(C)=O)c(OC(C)=O)cc3C2)cc1` (configuration not stated): the GI50 was 13 µM (inactive) with SN12K1, 5.42 µM (inactive) with P388/ADR and 6 µM (inactive) in the assay with P388.
In the same order, the values of `CSCSCC(CO)NC(=O)/C(C)=C\c1c(C)[nH]c(=O)[nH]c1=O` (configuration not stated) are > 250 µM (inactive), > 250 µM (inactive) and > 250 µM (inactive).
In the same order, the values of `O=C(O)CC(NC(=O)CP(=O)(O)O)C(=O)O` (configuration not stated) are 5.32 µM (inactive), 77.1 µM (inactive) and 127 µM (inactive).
As to `O=c1[nH]c2ccccc2n1C1CCN(Cc2ccc(-c3nc4cc5[nH]cnc5cc4nc3-c3ccccc3)cc2)CC1`, in [15], the IC50 is 7.43 µM (active).
In the case of `C/C(=C\c1ccccc1)C(=O)CCN1CCOCC1`, the GI50 with SN12K1 was 17.9 µM (inactive); with P388/ADR, 5.73 µM (inactive); in the assay on P388 it was 4.78 µM (inactive).
